From patent publication US20100210602A1, “PhoU (PerF), A P[…] INVOLVED IN [sequence] FORMATION AND TOLERANCE TO MULTIPLE ANTIBIOTICS AND [sequence] AS A DRUG TARGET FOR [sequence] BACTERIA” (priority 2006, published 2010)
In brackets after ≈: the same amount, converted by molar mass.

Key:
[1] = system: JHU-313 containing pVector; assay: Kirby-Bauer paper disc assay, zone inhibition; settings: Escherichia coli, read-out: zone inhibition
JHU-313 containing pPhoU [2] = assay: MIC/MBC by serial two-fold dilutions in LB broth; assay type: cell-based, E. coli; settings: Escherichia coli, 16 h at 37° C.
JHU-313 = assay: Kirby-Bauer paper disc assay, zone inhibition; settings: Escherichia coli, read-out: zone inhibition
JHU-313 containing pPhoU [3] = assay: Kirby-Bauer paper disc assay, zone inhibition; settings: Escherichia coli, read-out: zone inhibition
[4] = system: JHU-313 containing pVector; assay: MIC/MBC by serial two-fold dilutions in LB broth; assay type: cell-based, E. coli; settings: Escherichia coli, 16 h at 37° C.
W3110 = assay: microbe, parasite or virus in culture; settings: Escherichia coli, read-out: zone inhibition
wild type strain W3110 = assay: microbe, parasite or virus in culture; assay type: cell-based, E. coli; settings: Escherichia coli, W3110, 16 h
PhoU mutant (JHU-313) = assay: MIC/MBC by serial two-fold dilutions in LB broth; assay type: cell-based, E. coli; settings: Escherichia coli, 16 h at 37° C.
PhoU = molecular target: T1, PhoU (Escherichia coli, UniProt P0A9K7); assay: PhoU phosphatase substrate specificity; assay type: biochemical, E. coli; settings: pH5, pH7 and pH8
T1 construct: His; made in house
T1 sequence (P0A9K7 whole entry): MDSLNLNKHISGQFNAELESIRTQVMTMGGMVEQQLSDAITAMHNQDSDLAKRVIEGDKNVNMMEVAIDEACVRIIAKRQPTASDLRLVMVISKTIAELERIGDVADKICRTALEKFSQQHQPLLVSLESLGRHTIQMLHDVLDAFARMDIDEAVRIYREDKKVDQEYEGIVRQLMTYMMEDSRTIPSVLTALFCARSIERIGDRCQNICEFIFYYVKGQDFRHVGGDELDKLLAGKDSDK
Protocol: Different substrates for the PhoU phosphatase activity were tested. […] For PhoU, the substrates acetyl-P, carbamoyl-P, imido-di phosphate (imido-di-P), r-nitrophenyl phosphate (rNPP), β-Nicotinamide adenine dinucleotide phosphate (NADP), Glucose-1,6-bisphosphate (Glucose-1,6-bisP) were tested at pH5, pH7, and pH8 condition, as potential PhoU phosphatase activity.

COc1cc(Cc2cnc(N)nc2N)cc(OC)c1OC [Trimethoprim, trimethoprim]
zone of inhibition at 0.5 µg/mL [1]: 36 mm
zone of inhibition at 1 µg/mL [1]: 40 mm
zone of inhibition at 2 µg/mL [1]: 44 mm
MBC (JHU-313 containing pPhoU [2]; read-out: MBC): 4 µg/mL (≈ 13.8 µM)
MIC (JHU-313 containing pPhoU [2]; read-out: MIC): 2 µg/mL (≈ 6.89 µM)
zone of inhibition at 0.5 µg/mL (JHU-313): 31 mm
zone of inhibition at 1 µg/mL (JHU-313): 38 mm
zone of inhibition at 2 µg/mL (JHU-313): 42 mm
zone of inhibition at 0.5 µg/mL (JHU-313 containing pPhoU [3]): 32 mm
zone of inhibition at 1 µg/mL (JHU-313 containing pPhoU [3]): 33 mm
zone of inhibition at 2 µg/mL (JHU-313 containing pPhoU [3]): 36 mm
MBC ([4]; read-out: MBC): 1 µg/mL (≈ 3.44 µM)
MIC ([4]; read-out: MIC): 0.5 µg/mL (≈ 1.72 µM)
zone of inhibition at 0.5 µg/mL (W3110): 24 mm
zone of inhibition at 1 µg/mL (W3110): 26 mm
zone of inhibition at 2 µg/mL (W3110): 30 mm
MBC (wild type strain W3110): 8 µg/mL (≈ 27.6 µM)
MIC (wild type strain W3110): 2 µg/mL (≈ 6.89 µM)
MBC (PhoU mutant (JHU-313); read-out: MBC): 1 µg/mL (≈ 3.44 µM)
MIC (PhoU mutant (JHU-313); read-out: MIC): 0.25 µg/mL (≈ 0.861 µM)

CC(=O)OP(=O)(O)O [acetyl-P, acetyl phosphate]
rank as PhoU phosphatase substrate (PhoU): acetyl-P>rNPP>carbamoyl-P>Glucose-1,6-bisP>NADP

NC(=O)OP(=O)(O)O [carbamoyl-P, carbamoyl phosphate]
rank as PhoU phosphatase substrate (PhoU): acetyl-P>rNPP>carbamoyl-P>Glucose-1,6-bisP>NADP

O=[N+]([O-])c1ccc(OP(=O)(O)O)cc1 [rNPP, r-nitrophenyl phosphate]
rank as PhoU phosphatase substrate (PhoU): acetyl-P>rNPP>carbamoyl-P>Glucose-1,6-bisP>NADP

β-Nicotinamide adenine dinucleotide phosphate [NADP]
rank as PhoU phosphatase substrate (PhoU): acetyl-P>rNPP>carbamoyl-P>Glucose-1,6-bisP>NADP
